Values of other authors in US20150297607A1, “Tricyclic Lactams for Use in the Protection of Normal Cells During Chemotherapy” (G1 Therapeutics, Inc., priority 2014, published 2015).

Conditions: clinical trial; Grade 3/4 neutropenia and leukopenia

- patients requiring a dose interruption: 71%
- patients requiring a dose reduction: 35%
SMILES: CC(=O)c1c(C)c2cnc(Nc3ccc(N4CCNCC4)cn3)nc2n(C2CCCC2)c1=O [PD0332991, 6-acetyl-8-cyclopentyl-5-methyl-2-(5-piperazin-1-yl-pyridin-2-ylammino)-8H-pyrido-[2,3-d]-pyrimidin-7-one]
